Assay results reported in patent publication US9895346B2, “Applications of substituent benzyloxy group containing ether compounds for preparing antitumor drugs” (Sinochem Corporation, priority 2013, dated 2018).

Tests used:
[1] = system: bladder cancer cell line J82; assay: In vitro cell inhibition assay (crystal violet), bladder cancer J82; format: cell-based, human
Source text: (§1) In vitro Cell inhibition assay is as follows:
(§2) The human cancer cell lines used for this assay were bladder cancer J82, T24, prostate cancer LNCap, PC-3, lung cancer A549, H157, H460, H520, colon cancer HCT8, HCT116, RkO, and leukemia HL-60, etc.
(§3) In vitro cell culture technology was selected for the determination of inhibition rate bladder cancer cell lines J82 and T24, prostate cancer cell lines LNCap and PC-3, lung cancer cell lines A549, H157, H460 and H520. 1000 to 3000 cells were inoculated to 24-well plate, followed by addition of 1 mL culture medium well known to researchers in this field to each well, the cells were cultured in 5% incubator for 24 hours at 37° C., then the different concentration compounds and controls were added to each well. It should be noted that the added volume is not more than 0.5% of total volume. After completion of addition, the cells continued being cultured in incubator for one week, the culture medium was removed and washed by cold PBS of 1 mL once, and then fixed for 10 minutes at room temperature with 1% formalin, followed by wash with PBS of 1 mL. After fixation, stain was carried out with 0.1% crystal violet for 30 minutes. 0.1% crystal violet was recycled. The stained cells were washed gently with deionized water, dried at room temperature and kepted. The inhibition rate was calculated according to the foiling equation. The controls are Selumetinib (AZD6244), Gefitinib, Cisplatin. Inhibition rate=number of left cells each treatment/number of left cells of untreated control×100%

[2] = system: bladder cancer cell line T24; assay: In vitro cell inhibition assay (crystal violet), bladder cancer T24; format: cell-based, human
Source text: as §1, §2, §3

[3] = system: prostate cancer cell line LNCap; assay: In vitro cell inhibition assay (crystal violet), prostate cancer LNCap; format: cell-based, human
Source text: as §1, §2, §3

[4] = system: prostate cancer cell line PC-3; assay: In vitro cell inhibition assay (crystal violet), prostate cancer PC-3; format: cell-based, human
Source text: as §1, §2, §3

[5] = system: lung cancer cell line A549; assay: In vitro cell inhibition assay (crystal violet), lung cancer A549; format: cell-based, human
How it was run: (§4)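 1000-3000 cells per well grown 24 h at 37 °C, then exposed to compound for one week (vehicle ≤0.5% of volume). Cells formalin-fixed and stained with 0.1% crystal violet. Inhibition rate = remaining cells in treated wells / remaining cells in untreated control × 100%.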

[6] = system: lung cancer cell line H157; assay: In vitro cell inhibition assay (crystal violet), lung cancer H157; format: cell-based, human
Source text: as §1, §2, §3

[7] = system: lung cancer cell line H460; assay: In vitro cell inhibition assay (crystal violet), lung cancer H460; format: cell-based, human
How it was run: as §4

[8] = system: lung cancer cell line H520; assay: In vitro cell inhibition assay (crystal violet), lung cancer H520; format: cell-based, human
How it was run: as §4

colon cancer HCT8 = assay: In vitro cell inhibition assay, colon cancer HCT8; format: cell-based, human
Source text: as §1, §2

colon cancer HCT116 = assay: In vitro cell inhibition assay, colon cancer HCT116; format: cell-based, human
Source text: as §1, §2

colon cancer RkO = assay: In vitro cell inhibition assay, colon cancer RkO; format: cell-based, human
Source text: as §1, §2

[9] = system: human leukemia HL-60 cells; assay: Proliferation inhibition of human leukemia HL-60 cells, MTT method; format: cell-based; details: 48 h incubation, OPTI-MEM medium
How it was run: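 Cells at 5×10^4 cells/mL cultured overnight at 37 °C, 5% CO2, then exposed to compounds at different concentrations for 48 h. MTT added for 4 h, formazan dissolved in DMSO and absorbance read at 570 nm to give inhibition rate.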

CCCCc1c(C)c2ccc(OCc3ccccc3/C(=C\OC)C(=O)OC)cc2oc1=O [Compound 28-72, coumoxystrobin]
Inhibition rate on human cancer cells ([1]; J82, 0.25 μM): 70%
Inhibition rate on human cancer cells ([1]; J82, 0.5 μM): 90%
Inhibition rate on human cancer cells ([1]; J82, 1.0 μM): 95%
Inhibition rate on human cancer cells ([1]; J82, 2.5 μM): 100%
Inhibition rate on human cancer cells ([1]; J82, 5.0 μM): 100%
Inhibition rate on human cancer cells ([2]; T24, 0.25 μM): 100%
Inhibition rate on human cancer cells ([2]; T24, 0.5 μM): 100%
Inhibition rate on human cancer cells ([2]; T24, 1.0 μM): 100%
Inhibition rate on human cancer cells ([2]; T24, 2.5 μM): 100%
Inhibition rate on human cancer cells ([2]; T24, 5.0 μM): 100%
Inhibition rate on human cancer cells ([3]; 0.25 μM): 100%
Inhibition rate on human cancer cells ([3]; 0.5 μM): 100%
Inhibition rate on human cancer cells ([3]; 1.0 μM): 100%
Inhibition rate on human cancer cells ([3]; 2.5 μM): 100%
Inhibition rate on human cancer cells ([3]; 5.0 μM): 100%
Inhibition rate on human cancer cells ([4]; PC-3, 0.25 μM): 100%
Inhibition rate on human cancer cells ([4]; PC-3, 0.5 μM): 100%
Inhibition rate on human cancer cells ([4]; PC-3, 1.0 μM): 100%
Inhibition rate on human cancer cells ([4]; PC-3, 2.5 μM): 100%
Inhibition rate on human cancer cells ([4]; PC-3, 5.0 μM): 100%
Inhibition rate on human cancer cells ([5]; A549, 0.5 μM): 90%
Inhibition rate on human cancer cells ([5]; A549, 1.0 μM): 95%
Inhibition rate on human cancer cells ([5]; A549, 2.5 μM): 100%
Inhibition rate on human cancer cells ([5]; A549, 5.0 μM): 100%
Inhibition rate on human cancer cells ([6]; H157, 0.25 μM): >90%
Inhibition rate on human cancer cells ([6]; H157, 0.5 μM): 100%
Inhibition rate on human cancer cells ([6]; H157, 1.0 μM): 100%
Inhibition rate on human cancer cells ([6]; H157, 2.5 μM): 100%
Inhibition rate on human cancer cells ([6]; H157, 5.0 μM): 100%
Inhibition rate on human cancer cells ([7]; H460, 0.25 μM): 95%
Inhibition rate on human cancer cells ([7]; H460, 0.5 μM): 100%
Inhibition rate on human cancer cells ([7]; H460, 1.0 μM): 100%
Inhibition rate on human cancer cells ([7]; H460, 2.5 μM): 100%
Inhibition rate on human cancer cells ([7]; H460, 5.0 μM): 100%
Inhibition rate on human cancer cells ([8]; H520, 0.25 μM): >90%
Inhibition rate on human cancer cells ([8]; H520, 0.5 μM): 100%
Inhibition rate on human cancer cells ([8]; H520, 1.0 μM): 100%
Inhibition rate on human cancer cells ([8]; H520, 2.5 μM): 100%
Inhibition rate on human cancer cells ([8]; H520, 5.0 μM): 100%
Inhibition rate on human cancer cells (colon cancer HCT8; HCT 8, 0.5 μM): 95%
Inhibition rate on human cancer cells (colon cancer HCT8; HCT 8, 1.0 μM): 100%
Inhibition rate on human cancer cells (colon cancer HCT8; HCT 8, 2.5 μM): 100%
Inhibition rate on human cancer cells (colon cancer HCT8; HCT 8, 5.0 μM): 100%
Inhibition rate on human cancer cells (colon cancer HCT116; HCT 116, 0.25 μM): 80%
Inhibition rate on human cancer cells (colon cancer HCT116; HCT 116, 0.5 μM): 95%
Inhibition rate on human cancer cells (colon cancer HCT116; HCT 116, 1.0 μM): 99%
Inhibition rate on human cancer cells (colon cancer HCT116; HCT 116, 2.5 μM): 100%
Inhibition rate on human cancer cells (colon cancer HCT116; HCT 116, 5.0 μM): 100%
Inhibition rate on human cancer cells (colon cancer RkO; 0.25 μM): 95%
Inhibition rate on human cancer cells (colon cancer RkO; 0.5 μM): 100%
Inhibition rate on human cancer cells (colon cancer RkO; 1.0 μM): 100%
Inhibition rate on human cancer cells (colon cancer RkO; 2.5 μM): 100%
Inhibition rate on human cancer cells (colon cancer RkO; 5.0 μM): 100%
Proliferation inhibitory effect on human leukemia HL-60 cell (%) ([9]; concentration 1 μM): 45.3%
Proliferation inhibitory effect on human leukemia HL-60 cell (%) ([9]; concentration 10 μM): 47.9%
Proliferation inhibitory effect on human leukemia HL-60 cell (%) ([9]; concentration 100 μM): 54.4%
